Results from patent US8343993B2, “Hydroxyalkyl substituted imidazonaphthyridines” (3M Innovative Properties Company, priority 2005, dated 2013).
Read-outs that look alike come from different tables or passages of the source.

Assays:
IFN-α = assay: Cytokine induction in human cells (PBMC): IFN-α secreted into culture media, ELISA; type: cell-based; details: 30-0.014 μM, lowest concentration inducing over 20 pg/mL, median where several experiments, read-out: Minimum Effective Concentration IFN
Excerpt: (§1) An in vitro human blood cell system is used to assess cytokine induction. Activity is based on the measurement of interferon (α) and tumor necrosis factor (α) (IFN-α, and TNF-α, respectively) secreted into culture media as described by Testerman et. al. in “Cytokine Induction by the Immunomodulators Imiquimod and S-27609”, Journal of Leukocyte Biology, 58, 365-372 (September, 1995).
(§2) Whole blood from healthy human donors is collected by venipuncture into vacutainer tubes or syringes containing EDTA. Peripheral blood mononuclear cells (PBMC) are separated from whole blood by density gradient centrifugation using HISTOPAQUE-1077 (Sigma, St. Louis, Mo.) or Ficoll-Paque Plus (Amersham Biosciences Piscataway, N.J.). Blood is diluted 1:1 with Dulbecco's Phosphate Buffered Saline (DPBS) or Hank's Balanced Salts Solution (HBSS). Alternately, whole blood is placed in Accuspin (Sigma) or LeucoSep (Greiner Bio-One, Inc., Longwood Fla.) centrifuge frit tubes containing density gradient medium. The PBMC layer is collected and washed twice with DPBS or HBSS and re-suspended at 4×10^6 cells/mL in RPMI complete. The PBMC suspension is added to 96 well flat bottom sterile tissue culture plates containing an equal volume of RPMI complete media containing test compound.
(§3) The compounds are solubilized in dimethyl sulfoxide (DMSO). The DMSO concentration should not exceed a final concentration of 1% for addition to the culture wells. The compounds are generally tested at concentrations ranging from 30-0.014 μM. Controls include cell samples with media only, cell samples with DMSO only (no compound), and cell samples with reference compound.
(§4) The solution of test compound is added at 60 μM to the first well containing RPMI complete and serial 3 fold dilutions are made in the wells. The PBMC suspension is then added to the wells in an equal volume, bringing the test compound concentrations to the desired range (usually 30-0.014 μM). The final concentration of PBMC suspension is 2×10^6 cells/mL. The plates are covered with sterile plastic lids, mixed gently and then incubated for 18 to 24 hours at 37° C. in a 5% carbon dioxide atmosphere.
(§5) Following incubation the plates are centrifuged for 10 minutes at 1000 rpm (approximately 200×g) at 4° C. The cell-free culture supernatant is removed and transferred to sterile polypropylene tubes. Samples are maintained at −30 to −70° C. until analysis. The samples are analyzed for IFN-α by ELISA and for TNF-α by IGEN/BioVeris Assay.
IFN-α concentration is determined with a human multi-subtype colorimetric sandwich ELISA (Catalog Number 41105) from PBL Biomedical Laboratories, Piscataway, N.J. Results are expressed in pg/mL.
Analysis of the data has two steps. First, the greater of the mean DMSO (DMSO control wells) or the experimental background (usually 20 pg/mL for IFN-α and 40 pg/mL for TNF-α) is subtracted from each reading. If any negative values result from background subtraction, the reading is reported as “*” and is noted as not reliably detectable. In subsequent calculations and statistics, “*” is treated as a zero. Second, all, background subtracted values are multiplied by a single adjustment ratio to decrease experiment to experiment variability. The adjustment ratio is the area of the reference compound in the new experiment divided by the expected area of the reference compound based on the past 61 experiments (unadjusted readings). […] The reference compound used is 2-[4-amino-2-ethoxymethyl-6,7,8,9-tetrahydro-α,α-dimethyl-1H-imidazo[4,5-c]quinolin-1-yl]ethanol hydrate (U.S. Pat. No. 5,352,784; Example 91) and the expected area is the sum of the median dose values from the past 61 experiments.
The minimum effective concentration is calculated based on the background-subtracted, reference-adjusted results for a given experiment and compound. […]

TNF-α = assay: Cytokine induction in human cells (PBMC): TNF-α secreted into culture media, ORIGEN M-Series immunoassay; type: cell-based; details: 30-0.014 μM, lowest concentration inducing over 40 pg/mL, median where several experiments, read-out: Minimum Effective Concentration TNF
Excerpt: as §1, §2, §3, §4, §5
The TNF-α concentration is determined by ORIGEN M-Series Immunoassay and read on an IGEN M-8 analyzer from BioVeris Corporation, formerly known as IGEN International, Gaithersburg, Md. The immunoassay uses a human TNF-α capture and detection antibody pair (Catalog Numbers AHC3419 and AHC3712) from Biosource International, Camarillo, Calif. Results are expressed in pg/mL.
Analysis of the data has two steps. First, the greater of the mean DMSO (DMSO control wells) or the experimental background (usually 20 pg/mL for IFN-α and 40 pg/mL for TNF-α) is subtracted from each reading. If any negative values result from background subtraction, the reading is reported as “*” and is noted as not reliably detectable. In subsequent calculations and statistics, “*” is treated as a zero. Second, all, background subtracted values are multiplied by a single adjustment ratio to decrease experiment to experiment variability. The adjustment ratio is the area of the reference compound in the new experiment divided by the expected area of the reference compound based on the past 61 experiments (unadjusted readings). […] The reference compound used is 2-[4-amino-2-ethoxymethyl-6,7,8,9-tetrahydro-α,α-dimethyl-1H-imidazo[4,5-c]quinolin-1-yl]ethanol hydrate (U.S. Pat. No. 5,352,784; Example 91) and the expected area is the sum of the median dose values from the past 61 experiments. […]

Row | Structure (SMILES) | minimal effective concentration (IFN-α; Table 3, 18 to 24 hours) | minimal effective concentration (IFN-α; Table 4, 18 to 24 hours) | minimal effective concentration (TNF-α; Table 3, 18 to 24 hours) | minimal effective concentration (TNF-α; Table 4, 18 to 24 hours) | melting point
1 | CC(C)(O)Cn1c(CCO)nc2c(N)nc3cccnc3c21 [Example 7, 1-[4-Amino-2-(2-hydroxyethyl)-1H-imidazo[4,5-c][1,5]naphthyridin 1-yl]-2-methylpropan-2-ol] | 3.33 µM | 3.33 µM | 30 µM | 30 µM | 194 to 195 °C
2 | CC(C)(F)Cn1c(CO)nc2c(N)nc3cccnc3c21 [Example 14, [4-Amino-1-(2-fluoro-2-methylpropyl)-1H-imidazo[4,5-c][1,5]naphthyridin-2-yl]methanol] |  | 1.11 µM |  | 3.33 µM | 240 to 241 °C
3 | CC(C)(F)Cn1c(CCO)nc2c(N)nc3cccnc3c21 [Example 15, 2-[4-Amino-1-(2-fluoro-2-methylpropyl)-1H-imidazo[4,5-c][1,5]naphthyridin-2-yl]ethanol] |  | 1.11 µM |  | 10 µM | 224 to 225 °C
4 | CC(C)Cn1c(CO)nc2c(N)nc3cccnc3c21 [Example 96, [4-Amino-1-(2-methylpropyl)-1H-imidazo[4,5-c][1,5]naphthyridin-2-yl]methanol] |  | 1.11 µM |  | 30 µM | 226 to 228 °C
